# From PubChem BioAssay (NCI)
# Where “and” joins values, the source holds several entries; their conditions need not be identical. Equal entries are not always repeated.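 Compound exposure: 48 hours, 5 concentrations, 96-well plates. GI50 = concentration required for 50% inhibition of growth. TGI is the concentration that stops growth completely.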
# How the values were obtained:
# Test in all cases: DTP human tumour cell line panel, 48 h
# DLD-1 colon = system: DLD-1 colon
# HOP-18 NSCLC = system: HOP-18 NSCLC
# LXFL 529 NSCLC = system: LXFL 529 NSCLC
# RXF-631 renal = system: RXF-631 renal
# XF 498 CNS = system: XF 498 CNS
# T-47D breast = system: T-47D breast
# DMS 273 small cell lung = system: DMS 273 small cell lung
# M19-MEL melanoma = system: M19-MEL melanoma
# MDA-N = system: MDA-N
smiles,measurement,setting,value
COC[C@H](C)N=CN1CCc2ccccc2C1(Cc1ccccc1)Cc1ccccc1,TGI,DLD-1 colon,29.8 µM
same,TGI,HOP-18 NSCLC,24 µM
same,TGI,LXFL 529 NSCLC,25.3 µM
same,TGI,RXF-631 renal,34.9 µM
same,TGI,XF 498 CNS,24.8 µM
Fc1ccc(Nc2nc3ccccc3c3occc23)cc1,GI50,T-47D breast,0.135 µM
C=C1C(=O)O[C@H]2[C@H]1CC/C(COC(=O)NCCCCCCCCNC(=O)OC/C1=C/CC[C@@]3(C)O[C@H]3[C@H]3OC(=O)C(=C)[C@@H]3CC1)=C\CC[C@@]1(C)O[C@@H]21,GI50,T-47D breast,0.323 µM
same,TGI,T-47D breast,0.915 µM
CN(C)CCOC(=O)Nc1nc2ccc(Sc3ccccc3)cc2[nH]1,GI50,T-47D breast,4.66 µM
same,TGI,T-47D breast,21.4 µM
CN(C)c1ccc(N=C2C=CC(=O)c3ccccc32)cc1,GI50,T-47D breast,2.27 µM
same,TGI,T-47D breast,6.01 µM
COc1cccc(Nc2nccc(-c3cnn4ncccc34)n2)c1,GI50,T-47D breast,0.0776 µM
same,TGI,T-47D breast,0.428 µM
Nc1c(F)cc(-c2nc3cc(F)ccc3[se]2)cc1Br,GI50,T-47D breast,0.0578 µM
same,TGI,T-47D breast,0.631 µM
CCN(Cc1ccc(F)cc1)c1ccc(CO)c(OC)c1,GI50,T-47D breast,6.32 µM
same,TGI,T-47D breast,33.4 µM
CN1CCN(Cc2ccc(NC(=O)c3cncc(C#Cc4cnc(N)c5cnccc45)c3)cc2C(F)(F)F)CC1,GI50,T-47D breast,0.41 µM
same,TGI,T-47D breast,9.13 µM
CCN(CC)CCNc1ccc2nc(C)n3c4ccc(O)cc4c(=O)c1c23,TGI,DLD-1 colon,10.5 µM
same,TGI,DMS 273 small cell lung,3.15 µM
same,TGI,LXFL 529 NSCLC,16.5 µM
same,TGI,M19-MEL melanoma,16.8 µM
same,TGI,RXF-631 renal,7.51 µM
CCOC(=O)CNc1nnnn1C1OC(CO)C(O)C1O (stereo unspecified),TGI,DLD-1 colon,> 100 µM
same,TGI,DMS 273 small cell lung,> 100 µM
same,TGI,LXFL 529 NSCLC,> 100 µM
same,TGI,M19-MEL melanoma,> 100 µM
same,TGI,XF 498 CNS,> 100 µM
[O-]c1c2c(nn1-c1ccc(Cl)cc1)c1ccccc1c[n+]2Cc1ccccc1,TGI,DLD-1 colon,> 100 µM
same,TGI,DMS 273 small cell lung,> 100 µM
same,TGI,HOP-18 NSCLC,> 100 µM
same,TGI,LXFL 529 NSCLC,> 100 µM
same,TGI,XF 498 CNS,> 100 µM
O=[N+]([O-])c1ccc(Sc2ccncn2)c([N+](=O)[O-])c1,GI50,T-47D breast,1.94 µM
same,TGI,T-47D breast,4.41 µM
C/C(=N\NC(=O)CC(=O)N(C(=O)c1ccc(Cl)cc1)c1ccc(C)cc1)c1ccccc1O,TGI,DLD-1 colon,> 100 µM
same,TGI,DMS 273 small cell lung,> 100 µM
same,TGI,LXFL 529 NSCLC,> 100 µM
same,TGI,M19-MEL melanoma,> 100 µM
same,TGI,RXF-631 renal,> 100 µM
same,TGI,XF 498 CNS,> 100 µM
CCCCCCCCCCCCCB(O)O,TGI,DLD-1 colon,> 100 µM
same,TGI,DMS 273 small cell lung,> 100 µM
same,GI50,HOP-18 NSCLC,> 100 µM and 25.9 µM
same,TGI,HOP-18 NSCLC,> 100 µM
same,TGI,LXFL 529 NSCLC,> 100 µM
same,TGI,M19-MEL melanoma,> 100 µM
same,TGI,XF 498 CNS,> 100 µM
C[CH2][Sn]([CH2]C)([O]C(=O)c1ccc(OC)c(OC)c1OC)[O]C(=O)c1ccc(OC)c(OC)c1OC,GI50,DMS 273 small cell lung,> 100 µM
same,TGI,DMS 273 small cell lung,> 100 µM
same,GI50,HOP-18 NSCLC,18.7 µM
same,TGI,HOP-18 NSCLC,32.7 µM
same,GI50,LXFL 529 NSCLC,12.6 µM
same,TGI,LXFL 529 NSCLC,25.3 µM
same,GI50,M19-MEL melanoma,53.2 µM
same,TGI,M19-MEL melanoma,> 100 µM
same,GI50,MDA-N,> 100 µM
same,TGI,MDA-N,> 100 µM
same,GI50,T-47D breast,12.7 µM
same,TGI,T-47D breast,26.1 µM
same,GI50,XF 498 CNS,34.6 µM
same,TGI,XF 498 CNS,> 71.5 µM
c1ccc(N/N=C2\NN=C(c3ccccc3)CS2)cc1,TGI,RXF-631 renal,35.8 µM
CCCCN(CCCC)CCCn1cnc2ncccc2c1=O,TGI,DLD-1 colon,> 100 µM
same,TGI,DMS 273 small cell lung,> 100 µM
same,TGI,LXFL 529 NSCLC,> 100 µM
same,TGI,M19-MEL melanoma,> 100 µM
same,TGI,XF 498 CNS,> 100 µM
COc1ccc2c(c1OC(C)=O)C1=CC(=O)CCC13CCNC3C2 (stereo unspecified),TGI,MDA-N,> 100 µM
same,TGI,T-47D breast,> 100 µM
COC(=O)C(=O)C(C(=O)C(=O)Nc1cc(C)ccc1C)c1nc2ccc(C(=O)c3ccccc3)cc2[nH]c1=O (stereo unspecified),TGI,DMS 273 small cell lung,> 100 µM
same,TGI,HOP-18 NSCLC,> 100 µM
same,TGI,LXFL 529 NSCLC,> 100 µM
same,TGI,M19-MEL melanoma,> 100 µM
same,TGI,RXF-631 renal,> 100 µM
Cc1nccc2c3ccc(OCc4cn(-c5ccc(Cl)cc5)nn4)cc3n(CC(C)C)c12,GI50,T-47D breast,1.34 µM
same,TGI,T-47D breast,11.3 µM
C[Si](C)(C)C(Sc1ccccc1)(Sc1ccccc1)Sc1ccccc1,TGI,DLD-1 colon,> 100 µM
same,TGI,DMS 273 small cell lung,> 100 µM
same,TGI,LXFL 529 NSCLC,> 100 µM
same,TGI,M19-MEL melanoma,> 100 µM
same,TGI,XF 498 CNS,> 100 µM
Cn1c2ccccc2c2c(=O)n(CCCC(=O)OC(=NC3CCCCC3)NC3CCCCC3)c3c(-c4ccccc4)nnn3c21,GI50,T-47D breast,55.8 µM
same,TGI,T-47D breast,> 100 µM
O=C1C2C3C=CC(C2C(=O)N1CN1CCSCC1)C1C2C(=O)N(CN4CCSCC4)C(=O)C2C31 (stereo unspecified),TGI,DLD-1 colon,> 79.3 µM
same,TGI,DMS 273 small cell lung,> 61.4 µM
same,TGI,HOP-18 NSCLC,91.5 µM
same,TGI,LXFL 529 NSCLC,> 100 µM
same,TGI,M19-MEL melanoma,> 100 µM
same,TGI,RXF-631 renal,> 100 µM
same,TGI,XF 498 CNS,> 100 µM
C[C@@H](Oc1cc(-n2cnc3ccc(OC[C@@H](O)CO)cc32)sc1C(N)=O)c1ccccc1Cl,GI50,T-47D breast,1.22 µM
same,TGI,T-47D breast,> 25 µM
Cc1ccc(S(=O)(=O)Nc2ccc(-c3cc(-c4cccc(F)c4)c(C#N)c(N)n3)cc2)cc1,GI50,T-47D breast,1.48 µM
same,TGI,T-47D breast,3.66 µM
COC(=O)/C(=N\NC(N)=O)C(C(=O)C=C(C)C)C(=O)C(=O)Nc1ccc(Cl)c(Cl)c1 (stereo unspecified),TGI,DLD-1 colon,> 100 µM
same,TGI,DMS 273 small cell lung,> 100 µM
same,TGI,HOP-18 NSCLC,> 100 µM
same,TGI,LXFL 529 NSCLC,> 100 µM
same,TGI,M19-MEL melanoma,> 100 µM
same,TGI,RXF-631 renal,> 100 µM
same,TGI,XF 498 CNS,> 100 µM
Cc1cc(Cl)cc(Cc2cc(Cl)cc(C)c2O)c1O,GI50,T-47D breast,3.64 µM
same,TGI,T-47D breast,> 100 µM
CCCCCC[C@H](C)NC(=O)c1ccc(Nc2nc3ccccc3c3occc23)cc1,GI50,T-47D breast,1.2 µM
same,TGI,T-47D breast,6.31 µM
N#CC1C(=O)NC(c2ccccc2[N+](=O)[O-])c2sc3c(F)cccc3c21 (stereo unspecified),GI50,T-47D breast,0.241 µM
same,TGI,T-47D breast,20.7 µM
CC1C2CC=CC(=O)[C@@]2(C)CCC12OCCO2 (stereo partly specified),TGI,DLD-1 colon,> 100 µM
same,TGI,DMS 273 small cell lung,> 100 µM
same,TGI,LXFL 529 NSCLC,> 100 µM
same,TGI,M19-MEL melanoma,> 100 µM
COC(=O)[C@]12CC[C@@H](C)[C@H](C)[C@@H]1C1=CC[C@@H]3[C@@]4(C)C(C=O)=C[C@@](C)(COC(=O)/C=C/c5ccccc5)[C@@H]4[C@H](O)C[C@@]3(C)[C@]1(C)CC2,GI50,T-47D breast,4.4 µM
same,TGI,T-47D breast,84.1 µM
COCc1c(-c2ccc(NC(=O)Nc3cc(C(F)(F)F)ccc3F)c(F)c2)c2c(N)ncnn2c1CN1CCOCC1,GI50,T-47D breast,2.14 µM
same,TGI,T-47D breast,9.95 µM
COc1ccc2c(c1)C(=O)c1c-2c(Nc2cccc(C(C)=O)c2)nc2ccccc12,GI50,T-47D breast,13.6 µM
same,TGI,T-47D breast,55.2 µM
O=c1cc(-c2ccccc2)[nH]c2cc(Cl)ccc12,TGI,DLD-1 colon,23.8 µM
same,TGI,DMS 273 small cell lung,10.5 µM
same,TGI,HOP-18 NSCLC,> 100 µM
same,TGI,LXFL 529 NSCLC,53.2 µM
same,TGI,M19-MEL melanoma,> 100 µM
same,TGI,XF 498 CNS,1.71 µM
CCOCc1cc(=O)c2c(OC)cc3c(c2o1)CCC(C)(C)O3,TGI,DLD-1 colon,> 100 µM
same,TGI,HOP-18 NSCLC,> 100 µM
same,TGI,LXFL 529 NSCLC,> 100 µM
same,TGI,M19-MEL melanoma,> 100 µM
same,TGI,XF 498 CNS,> 100 µM
